The kinase profiling compilation of Christmann-Franck et al. (2016)

How the values were obtained:
Assay in all cases: radiometric filter-binding kinase assay, Kinase HotSpot
Settings in all cases: compound 0.5 µM; ATP 10 µM
NTRK1 (human) = NTRK1 (human) (UniProt P04629)
GSK3B (human) = GSK3B (human) (UniProt P49841)
FGFR2 (human) = FGFR2 (human) (UniProt P21802)
CSNK1G3 (human) = CSNK1G3 (human) (UniProt Q9Y6M4)
MAP3K9 (human) = MAP3K9 (human) (UniProt P80192)
MARK2 (human) = MARK2 (human) (UniProt Q7KZI7)
NEK6 (human) = NEK6 (human) (UniProt Q9HC98)
DCLK2 (human) = DCLK2 (human) (UniProt Q8N568)
STK25 (human) = STK25 (human) (UniProt O00506)
[1] = target: JAK1 JH1 catalytic (human) (UniProt P23458)
CSNK1D (human) = CSNK1D (human) (UniProt P48730)
PLK2 (human) = PLK2 (human) (UniProt Q9NYY3)
PHKG2 (human) = PHKG2 (human) (UniProt P15735)
DMPK (human) = DMPK (human) (UniProt Q09013)
WNK2 (human) = WNK2 (human) (UniProt Q9Y3S1)
NTRK3 (human) = NTRK3 (human) (UniProt Q16288)
GSG2 (human) = GSG2 (human) (UniProt Q8TF76)
DYRK4 (human) = DYRK4 (human) (UniProt Q9NR20)
PASK (human) = PASK (human) (UniProt Q96RG2)
PTK2B (human) = PTK2B (human) (UniProt Q14289)
CDK6 CCND1 (human) = CDK6 CCND1 (human) (UniProt Q00534+P24385)
DYRK1B (human) = DYRK1B (human) (UniProt Q9Y463)
MATK (human) = MATK (human) (UniProt P42679)
MST1R (human) = MST1R (human) (UniProt Q04912)
FGFR1 (human) = FGFR1 (human) (UniProt P11362)
MAPK8 (human) = MAPK8 (human) (UniProt P45983)
NUAK2 (human) = NUAK2 (human) (UniProt Q9H093)
CDK5 CDK5R1 p35 (human) = CDK5 CDK5R1 p35 (human) (UniProt Q00535+Q15078)
NEK2 (human) = NEK2 (human) (UniProt P51955)
TYRO3 (human) = TYRO3 (human) (UniProt Q06418)
MUSK (human) = MUSK (human) (UniProt O15146)
MERTK (human) = MERTK (human) (UniProt Q12866)
BRSK2 (human) = BRSK2 (human) (UniProt Q8IWQ3)
PIM2 (human) = PIM2 (human) (UniProt Q9P1W9)
PLK3 (human) = PLK3 (human) (UniProt Q9H4B4)
IRAK1 (human) = IRAK1 (human) (UniProt P51617)
EPHB4 (human) = EPHB4 (human) (UniProt P54760)
EPHB2 (human) = EPHB2 (human) (UniProt P29323)
STK17A (human) = STK17A (human) (UniProt Q9UEE5)
CSNK1E (human) = CSNK1E (human) (UniProt P49674)
SLK (human) = SLK (human) (UniProt Q9H2G2)
CAMK1G (human) = CAMK1G (human) (UniProt Q96NX5)

Chain of CSNK1D (human) (P48730 whole entry, looked up): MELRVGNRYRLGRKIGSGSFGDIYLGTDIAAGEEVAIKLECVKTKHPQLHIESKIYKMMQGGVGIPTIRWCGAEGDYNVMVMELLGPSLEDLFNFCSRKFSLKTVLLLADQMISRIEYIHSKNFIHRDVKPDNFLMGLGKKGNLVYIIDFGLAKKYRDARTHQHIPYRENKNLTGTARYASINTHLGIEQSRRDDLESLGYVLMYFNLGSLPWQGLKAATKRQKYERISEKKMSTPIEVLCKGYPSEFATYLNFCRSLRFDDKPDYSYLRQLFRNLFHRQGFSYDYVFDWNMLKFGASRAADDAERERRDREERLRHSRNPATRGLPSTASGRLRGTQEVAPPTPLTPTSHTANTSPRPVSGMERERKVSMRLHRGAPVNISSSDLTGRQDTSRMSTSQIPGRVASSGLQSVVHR
Chain of GSG2 (human) (Q8TF76 whole entry, looked up): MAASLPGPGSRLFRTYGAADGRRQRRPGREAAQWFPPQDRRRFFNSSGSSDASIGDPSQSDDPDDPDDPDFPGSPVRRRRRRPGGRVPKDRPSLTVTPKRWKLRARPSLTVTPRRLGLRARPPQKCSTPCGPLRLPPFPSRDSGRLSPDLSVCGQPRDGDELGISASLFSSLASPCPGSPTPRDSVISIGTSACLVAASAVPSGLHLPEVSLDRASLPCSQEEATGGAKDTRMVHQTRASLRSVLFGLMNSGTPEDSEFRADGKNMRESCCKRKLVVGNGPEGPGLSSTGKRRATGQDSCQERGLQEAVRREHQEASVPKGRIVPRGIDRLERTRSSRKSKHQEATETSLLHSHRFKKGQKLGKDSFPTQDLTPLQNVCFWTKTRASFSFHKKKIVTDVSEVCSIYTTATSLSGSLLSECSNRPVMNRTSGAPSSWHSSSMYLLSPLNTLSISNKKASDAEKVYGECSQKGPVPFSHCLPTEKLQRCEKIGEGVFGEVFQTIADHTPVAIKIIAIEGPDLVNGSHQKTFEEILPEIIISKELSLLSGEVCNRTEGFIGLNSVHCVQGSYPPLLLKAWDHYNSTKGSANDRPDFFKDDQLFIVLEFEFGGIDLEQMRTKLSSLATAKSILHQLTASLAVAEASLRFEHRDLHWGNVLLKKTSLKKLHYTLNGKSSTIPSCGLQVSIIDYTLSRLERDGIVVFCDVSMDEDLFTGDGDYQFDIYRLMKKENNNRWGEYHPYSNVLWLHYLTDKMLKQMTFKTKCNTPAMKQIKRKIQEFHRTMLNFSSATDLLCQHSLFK
Chain of MATK (human) (P42679 whole entry, looked up): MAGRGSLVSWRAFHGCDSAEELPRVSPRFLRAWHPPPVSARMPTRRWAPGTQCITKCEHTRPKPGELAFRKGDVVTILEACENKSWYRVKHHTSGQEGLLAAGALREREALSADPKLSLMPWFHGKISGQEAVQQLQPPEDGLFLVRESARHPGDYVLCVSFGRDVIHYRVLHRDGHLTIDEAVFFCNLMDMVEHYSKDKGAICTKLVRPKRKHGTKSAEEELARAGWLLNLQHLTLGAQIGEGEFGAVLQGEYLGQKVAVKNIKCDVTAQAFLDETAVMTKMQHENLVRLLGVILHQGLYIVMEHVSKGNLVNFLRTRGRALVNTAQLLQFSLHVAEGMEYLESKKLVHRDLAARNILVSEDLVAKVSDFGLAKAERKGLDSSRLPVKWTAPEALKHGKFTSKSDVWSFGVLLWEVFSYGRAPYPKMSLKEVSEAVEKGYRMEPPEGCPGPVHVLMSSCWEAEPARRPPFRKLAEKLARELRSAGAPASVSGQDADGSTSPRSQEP
Chain of CSNK1E (human) (P49674 whole entry, looked up): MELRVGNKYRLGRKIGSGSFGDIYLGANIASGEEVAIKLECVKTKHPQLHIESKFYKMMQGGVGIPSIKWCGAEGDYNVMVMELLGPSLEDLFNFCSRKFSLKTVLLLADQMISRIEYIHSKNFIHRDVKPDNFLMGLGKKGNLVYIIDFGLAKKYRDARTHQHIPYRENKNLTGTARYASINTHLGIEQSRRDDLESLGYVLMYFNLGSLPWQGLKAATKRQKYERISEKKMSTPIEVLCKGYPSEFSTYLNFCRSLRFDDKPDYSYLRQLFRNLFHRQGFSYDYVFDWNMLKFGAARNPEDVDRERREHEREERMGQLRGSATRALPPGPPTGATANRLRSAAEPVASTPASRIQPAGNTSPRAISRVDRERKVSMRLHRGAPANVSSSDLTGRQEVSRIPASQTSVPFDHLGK
Chain of NEK6 (human) (Q9HC98 whole entry, looked up): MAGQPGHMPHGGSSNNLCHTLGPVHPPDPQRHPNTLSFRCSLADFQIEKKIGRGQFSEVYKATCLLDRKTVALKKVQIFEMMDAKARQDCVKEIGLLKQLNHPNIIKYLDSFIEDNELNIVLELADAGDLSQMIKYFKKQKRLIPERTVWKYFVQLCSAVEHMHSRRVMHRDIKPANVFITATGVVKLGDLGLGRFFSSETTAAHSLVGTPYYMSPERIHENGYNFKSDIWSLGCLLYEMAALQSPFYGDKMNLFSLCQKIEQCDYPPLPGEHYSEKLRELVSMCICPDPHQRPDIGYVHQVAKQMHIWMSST
Chain of GSK3B (human) (P49841 whole entry, looked up): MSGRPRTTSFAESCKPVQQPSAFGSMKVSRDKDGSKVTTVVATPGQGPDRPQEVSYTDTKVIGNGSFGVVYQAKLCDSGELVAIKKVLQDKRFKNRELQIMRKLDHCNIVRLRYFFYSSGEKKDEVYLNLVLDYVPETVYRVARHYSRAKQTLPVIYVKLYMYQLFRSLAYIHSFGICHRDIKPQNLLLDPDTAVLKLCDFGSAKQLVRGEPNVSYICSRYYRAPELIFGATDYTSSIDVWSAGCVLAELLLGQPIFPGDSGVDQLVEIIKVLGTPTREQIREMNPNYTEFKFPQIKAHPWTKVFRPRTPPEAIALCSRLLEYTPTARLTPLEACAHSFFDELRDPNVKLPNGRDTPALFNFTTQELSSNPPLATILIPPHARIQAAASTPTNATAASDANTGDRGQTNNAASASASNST
Chain of STK17A (human) (Q9UEE5 whole entry, looked up): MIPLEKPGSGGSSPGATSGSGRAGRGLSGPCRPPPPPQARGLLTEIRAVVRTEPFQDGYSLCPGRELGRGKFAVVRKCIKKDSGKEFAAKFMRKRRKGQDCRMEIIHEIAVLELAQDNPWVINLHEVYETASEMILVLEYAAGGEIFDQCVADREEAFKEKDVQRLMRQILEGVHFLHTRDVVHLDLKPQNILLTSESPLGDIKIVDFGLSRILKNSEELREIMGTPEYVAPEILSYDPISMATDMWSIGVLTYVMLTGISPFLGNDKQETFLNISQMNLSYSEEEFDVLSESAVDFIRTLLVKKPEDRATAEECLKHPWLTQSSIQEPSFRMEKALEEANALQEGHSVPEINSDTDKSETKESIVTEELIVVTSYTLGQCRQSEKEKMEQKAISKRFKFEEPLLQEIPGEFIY
Chain of JAK1 JH1 catalytic (human) (P23458 whole entry, looked up): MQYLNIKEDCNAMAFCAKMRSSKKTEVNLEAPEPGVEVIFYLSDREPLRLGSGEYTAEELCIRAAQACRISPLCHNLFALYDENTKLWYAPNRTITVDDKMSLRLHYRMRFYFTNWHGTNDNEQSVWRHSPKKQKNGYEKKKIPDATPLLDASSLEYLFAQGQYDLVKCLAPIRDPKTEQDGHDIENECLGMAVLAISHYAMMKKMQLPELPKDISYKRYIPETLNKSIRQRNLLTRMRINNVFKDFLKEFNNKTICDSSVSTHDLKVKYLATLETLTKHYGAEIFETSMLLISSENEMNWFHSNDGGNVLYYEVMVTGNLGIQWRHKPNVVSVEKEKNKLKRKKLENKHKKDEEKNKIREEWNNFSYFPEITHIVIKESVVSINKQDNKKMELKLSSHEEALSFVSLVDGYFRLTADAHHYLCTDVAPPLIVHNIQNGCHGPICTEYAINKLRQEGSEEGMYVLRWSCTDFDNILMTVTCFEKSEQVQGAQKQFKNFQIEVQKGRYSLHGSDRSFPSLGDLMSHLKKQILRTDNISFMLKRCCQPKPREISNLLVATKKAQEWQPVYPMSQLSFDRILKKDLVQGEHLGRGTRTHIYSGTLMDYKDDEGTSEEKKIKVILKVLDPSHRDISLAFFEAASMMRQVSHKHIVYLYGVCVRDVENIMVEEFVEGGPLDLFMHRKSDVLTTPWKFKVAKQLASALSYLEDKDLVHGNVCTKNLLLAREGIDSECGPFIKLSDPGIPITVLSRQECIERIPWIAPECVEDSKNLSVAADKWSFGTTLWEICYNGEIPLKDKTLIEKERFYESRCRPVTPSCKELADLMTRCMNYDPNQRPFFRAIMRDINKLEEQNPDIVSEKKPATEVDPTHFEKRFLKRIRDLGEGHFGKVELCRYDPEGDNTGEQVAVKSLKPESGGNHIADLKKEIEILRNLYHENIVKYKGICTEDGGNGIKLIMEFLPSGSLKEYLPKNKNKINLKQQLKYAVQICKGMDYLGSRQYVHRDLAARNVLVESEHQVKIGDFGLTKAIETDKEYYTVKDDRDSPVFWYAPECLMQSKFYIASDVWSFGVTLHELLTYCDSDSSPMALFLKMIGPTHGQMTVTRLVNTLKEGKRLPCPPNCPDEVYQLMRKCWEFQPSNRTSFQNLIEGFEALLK
Chain of STK25 (human) (O00506 whole entry, looked up): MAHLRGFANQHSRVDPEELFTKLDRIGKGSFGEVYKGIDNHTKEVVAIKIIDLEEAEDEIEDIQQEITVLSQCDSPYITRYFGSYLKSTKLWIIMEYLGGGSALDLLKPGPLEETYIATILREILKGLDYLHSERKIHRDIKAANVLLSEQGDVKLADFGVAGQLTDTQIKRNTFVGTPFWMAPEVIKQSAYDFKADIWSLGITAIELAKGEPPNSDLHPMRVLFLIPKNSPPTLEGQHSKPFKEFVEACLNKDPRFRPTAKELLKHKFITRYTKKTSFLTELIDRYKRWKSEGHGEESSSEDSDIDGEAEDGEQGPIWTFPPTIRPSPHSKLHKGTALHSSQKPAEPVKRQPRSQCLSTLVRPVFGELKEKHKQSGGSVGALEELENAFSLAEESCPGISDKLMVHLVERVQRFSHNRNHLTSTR

Molecule O=C1Nc2ccccc2/C1=C\c1c(Cl)[nH]c2ccccc12 has a residual activity (NTRK1 (human)) of 90.7%, a residual activity (GSK3B (human)) of 105% and a residual activity (FGFR2 (human)) of 102%. It also gave a residual activity (CSNK1G3 (human)) of 92.8%, a residual activity (MAP3K9 (human)) of 97.9% and a residual activity (MARK2 (human)) of 94.7%. For the same molecule, the residual activity (NEK6 (human)) was 96.5%, the residual activity (DCLK2 (human)) was 93.5% and the residual activity (STK25 (human)) was 97.7%. For the same molecule, the residual activity [1] was 96.6%, the residual activity (CSNK1D (human)) was 90.5% and the residual activity (PLK2 (human)) was 98.2%. For the same molecule, the residual activity (PHKG2 (human)) was 84.2%, the residual activity (DMPK (human)) was 101% and the residual activity (WNK2 (human)) was 93.4%. The residual activity (NTRK3 (human)) was 92.9%, the residual activity (GSG2 (human)) was 91% and the residual activity (DYRK4 (human)) was 97.4%. It also gave a residual activity (PASK (human)) of 89.3%, a residual activity (PTK2B (human)) of 95.5% and a residual activity (CDK6 CCND1 (human)) of 105%. The residual activity (DYRK1B (human)) was 99.3%, the residual activity (MATK (human)) was 89.5% and the residual activity (MST1R (human)) was 97.5%. For the same molecule, the residual activity (FGFR1 (human)) was 92%, the residual activity (MAPK8 (human)) was 93.5% and the residual activity (NUAK2 (human)) was 106%. It also gave a residual activity (CDK5 CDK5R1 p35 (human)) of 86.7%, a residual activity (NEK2 (human)) of 99% and a residual activity (TYRO3 (human)) of 99.4%. It also gave a residual activity (MUSK (human)) of 96.4%, a residual activity (MERTK (human)) of 88.2% and a residual activity (BRSK2 (human)) of 96.2%. The residual activity (PIM2 (human)) was 106%, the residual activity (PLK3 (human)) was 101% and the residual activity (IRAK1 (human)) was 89.5%. The residual activity (EPHB4 (human)) was 90.2%, the residual activity (EPHB2 (human)) was 94.2% and the residual activity (STK17A (human)) was 95.2%. For the same molecule, the residual activity (CSNK1E (human)) was 87.8% and the residual activity (SLK (human)) was 93.5%.

With O=C(NC(NC(=S)Nc1ccc(F)c([N+](=O)[O-])c1)C(Cl)(Cl)Cl)C(c1ccccc1)c1ccccc1 (stereo not drawn) the residual activity (NTRK1 (human)) was 107%, the residual activity (GSK3B (human)) was 109% and the residual activity (FGFR2 (human)) was 97.7%. The residual activity (CSNK1G3 (human)) was 87.7%, the residual activity (MAP3K9 (human)) was 94% and the residual activity (MARK2 (human)) was 92.3%. The residual activity (NEK6 (human)) was 109%, the residual activity (DCLK2 (human)) was 108% and the residual activity (STK25 (human)) was 96.2%. The residual activity [1] was 106%, the residual activity (CSNK1D (human)) was 105% and the residual activity (PLK2 (human)) was 92.9%. It also gave a residual activity (PHKG2 (human)) of 109%, a residual activity (DMPK (human)) of 85.5% and a residual activity (WNK2 (human)) of 117%. The residual activity (NTRK3 (human)) was 108%, the residual activity (GSG2 (human)) was 109% and the residual activity (DYRK4 (human)) was 104%. The residual activity (PASK (human)) was 104%, the residual activity (PTK2B (human)) was 102% and the residual activity (CDK6 CCND1 (human)) was 101%. The residual activity (DYRK1B (human)) was 103%, the residual activity (MATK (human)) was 96.5% and the residual activity (MST1R (human)) was 102%. The residual activity (FGFR1 (human)) was 97.7%, the residual activity (MAPK8 (human)) was 82.1% and the residual activity (NUAK2 (human)) was 108%. The residual activity (NEK2 (human)) was 112%, the residual activity (TYRO3 (human)) was 108% and the residual activity (MUSK (human)) was 106%. For the same molecule, the residual activity (MERTK (human)) was 96.2%, the residual activity (BRSK2 (human)) was 102% and the residual activity (PIM2 (human)) was 117%. It also gave a residual activity (PLK3 (human)) of 94.4%, a residual activity (IRAK1 (human)) of 107% and a residual activity (EPHB4 (human)) of 101%. For the same molecule, the residual activity (EPHB2 (human)) was 101%, the residual activity (STK17A (human)) was 99.8% and the residual activity (CSNK1E (human)) was 111%. For the same molecule, the residual activity (CAMK1G (human)) was 102% and the residual activity (SLK (human)) was 95.2%.

In the case of CC(C)(C)c1nc2c3ccc(F)cc3c3c(=O)[nH]ccc3c2[nH]1, the residual activity (NTRK1 (human)) is reported as 48.7%, the residual activity (GSK3B (human)) is reported as 95.1% and the residual activity (FGFR2 (human)) is reported as 99.1%. For the same molecule, the residual activity (CSNK1G3 (human)) was 105%, the residual activity (MAP3K9 (human)) was 20.4% and the residual activity (MARK2 (human)) was 41.5%. It also gave a residual activity (NEK6 (human)) of 82.5%, a residual activity (DCLK2 (human)) of 65.8% and a residual activity (STK25 (human)) of 86.9%. For the same molecule, the residual activity [1] was 2.54%, the residual activity (CSNK1D (human)) was 89.1% and the residual activity (PLK2 (human)) was 92.6%. For the same molecule, the residual activity (PHKG2 (human)) was 57.3%, the residual activity (DMPK (human)) was 105% and the residual activity (WNK2 (human)) was 105%. The residual activity (NTRK3 (human)) was 6.81%, the residual activity (GSG2 (human)) was 67.2% and the residual activity (DYRK4 (human)) was 104%. It also gave a residual activity (PASK (human)) of 83.2%, a residual activity (PTK2B (human)) of 48.4% and a residual activity (CDK6 CCND1 (human)) of 87.7%. It also gave a residual activity (DYRK1B (human)) of 88.2%, a residual activity (MATK (human)) of 102% and a residual activity (MST1R (human)) of 103%. For the same molecule, the residual activity (FGFR1 (human)) was 75.8%, the residual activity (MAPK8 (human)) was 73.7% and the residual activity (NUAK2 (human)) was 66%. It also gave a residual activity (TYRO3 (human)) of 90.3%, a residual activity (MUSK (human)) of 81.7% and a residual activity (MERTK (human)) of 79.4%. For the same molecule, the residual activity (BRSK2 (human)) was 21.4%, the residual activity (PIM2 (human)) was 90.8% and the residual activity (PLK3 (human)) was 11%. The residual activity (IRAK1 (human)) was 76.3%, the residual activity (EPHB4 (human)) was 88.2% and the residual activity (EPHB2 (human)) was 92.8%. For the same molecule, the residual activity (STK17A (human)) was 6.42%, the residual activity (CSNK1E (human)) was 85.6% and the residual activity (CAMK1G (human)) was 95.3%. It also gave a residual activity (SLK (human)) of 91.4%.

Cc1ccc(NC(=O)c2ccc(CN3CCN(C)CC3)cc2)cc1Nc1nc(-c2cccnc2)cs1 was tested, and the residual activity (NTRK1 (human)) was 97.1%, the residual activity (FGFR2 (human)) was 100% and the residual activity (CSNK1G3 (human)) was 96.8%. The residual activity (MAP3K9 (human)) was 104%, the residual activity (MARK2 (human)) was 104% and the residual activity (NEK6 (human)) was 91.3%. The residual activity (DCLK2 (human)) was 102%, the residual activity (STK25 (human)) was 95.5% and the residual activity [1] was 98.8%. The residual activity (CSNK1D (human)) was 92.7%, the residual activity (PLK2 (human)) was 97.9% and the residual activity (PHKG2 (human)) was 69.1%. It also gave a residual activity (DMPK (human)) of 104%, a residual activity (WNK2 (human)) of 99.2% and a residual activity (NTRK3 (human)) of 94.1%. It also gave a residual activity (GSG2 (human)) of 100%, a residual activity (DYRK4 (human)) of 100% and a residual activity (PASK (human)) of 103%. It also gave a residual activity (PTK2B (human)) of 98.9%, a residual activity (CDK6 CCND1 (human)) of 98% and a residual activity (DYRK1B (human)) of 95.7%. The residual activity (MATK (human)) was 85.9%, the residual activity (MST1R (human)) was 104% and the residual activity (FGFR1 (human)) was 103%. It also gave a residual activity (MAPK8 (human)) of 107%, a residual activity (NUAK2 (human)) of 98.4% and a residual activity (CDK5 CDK5R1 p35 (human)) of 100%. The residual activity (NEK2 (human)) was 96.7%, the residual activity (TYRO3 (human)) was 98.9% and the residual activity (MUSK (human)) was 99%. For the same molecule, the residual activity (MERTK (human)) was 109%, the residual activity (BRSK2 (human)) was 99.9% and the residual activity (PIM2 (human)) was 118%. It also gave a residual activity (PLK3 (human)) of 101%, a residual activity (IRAK1 (human)) of 104% and a residual activity (EPHB4 (human)) of 97.3%. The residual activity (EPHB2 (human)) was 95.3%, the residual activity (STK17A (human)) was 104% and the residual activity (CSNK1E (human)) was 98.8%. For the same molecule, the residual activity (CAMK1G (human)) was 106% and the residual activity (SLK (human)) was 92.4%.
